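Following 48 hours of exposure in 96-well plates, responses at five concentrations were used to interpolate endpoints linearly. GI50 is the concentration that inhibits growth by half. TGI marks complete inhibition of growth.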
How the values were obtained:
Test in all cases: NCI anticancer screen, dose series, 48 h
HOP-62 NSCLC = tested on: HOP-62 NSCLC
SF-539 CNS = tested on: SF-539 CNS
NCI-H226 lung = tested on: NCI-H226 lung
OVCAR-4 ovarian = tested on: OVCAR-4 ovarian
UACC-257 melanoma = tested on: UACC-257 melanoma
TK-10 renal = tested on: TK-10 renal
OVCAR-5 ovarian = tested on: OVCAR-5 ovarian
HCT-15 colon = tested on: HCT-15 colon
RXF 393 renal = tested on: RXF 393 renal
SN12C renal = tested on: SN12C renal
COLO 205 colon = tested on: COLO 205 colon
A549 NSCLC = tested on: A549 NSCLC
OVCAR-3 ovarian = tested on: OVCAR-3 ovarian
A498 renal = tested on: A498 renal
NCI-H460 lung = tested on: NCI-H460 lung
MALME-3M melanoma = tested on: MALME-3M melanoma
NCI-H522 lung = tested on: NCI-H522 lung
SR leukemia = tested on: SR leukemia

Compound | TGI (HOP-62 NSCLC) [µM] | TGI (SF-539 CNS) [µM] | TGI (NCI-H226 lung) [µM] | TGI (OVCAR-4 ovarian) [µM] | TGI (UACC-257 melanoma) [µM] | TGI (TK-10 renal) [µM] | TGI (OVCAR-5 ovarian) [µM] | TGI (HCT-15 colon) [µM] | TGI (RXF 393 renal) [µM] | TGI (SN12C renal) [µM] | TGI (COLO 205 colon) [µM] | TGI (A549 NSCLC) [µM] | TGI (OVCAR-3 ovarian) [µM] | TGI (A498 renal) [µM] | TGI (NCI-H460 lung) [µM] | TGI (MALME-3M melanoma) [µM] | TGI (NCI-H522 lung) [µM] | TGI (SR leukemia) [µM] | GI50 (UACC-257 melanoma) [µM]
Cc1cccc(-c2cc(=S)c3cc(N4CCCC4)ccc3[nH]2)c1 | > 100 | > 100 | > 100 | > 100 | > 100 | > 100 | > 100 | > 100 | > 100 | > 100 | > 100 | > 100 | > 100 | > 100 |  |  |  |  | 
CC(=O)N[C@H]1CCCC[C@@H]1OC(C)=O | > 100 |  | > 100 | > 100 | > 100 | > 100 | > 100 | > 100 | > 100 | > 100 | > 100 |  | > 100 | > 100 | > 100 | > 100 | > 100 |  | 
CC(NC(=O)OC(C)(C)C)C(=O)C(N)=O (centres undefined) | > 100 | > 100 | > 100 |  |  | > 100 | > 100 | > 100 |  | > 100 | > 100 | > 100 |  | > 100 | > 100 |  |  | > 100 | 
Clc1c(Cl)c2c(Cl)c(Cl)c1C[P+](c1ccccc1)(c1ccccc1)CC[P+](c1ccccc1)(c1ccccc1)Cc1c(Cl)c(Cl)c(c(Cl)c1Cl)C[P+](c1ccccc1)(c1ccccc1)CC[P+](c1ccccc1)(c1ccccc1)C2 | 18.5 | 16.2 | 20.2 | 8.59 | 6.38 | 9.41 | 13.2 | 24.6 | 10.9 | 15.3 | 2.89 | 18.8 | 8.97 | 24.4 | 12.4 | 7 | 9.26 |  | 
Cc1[nH]c(=O)nc(NCCNCCO)c1C(=O)Nc1c2ccccc2nc2ccccc12 | > 100 | > 100 | > 100 | > 100 | > 100 | > 100 | > 100 | > 100 | > 100 | > 100 | > 100 | > 100 | > 100 | > 100 |  | > 100 | > 100 |  | 
CC1(C)CN=C(Nc2cccc(C(F)(F)F)c2)S1 | > 100 | > 100 | > 100 | > 100 | > 100 | > 100 | > 100 | > 100 | > 100 | > 100 | > 100 | > 100 | > 100 |  |  | > 100 | > 100 | > 100 | 
OCCN(CCO)c1ccc2c(c1)Cc1ccccc1-2 | > 100 | > 100 | > 100 | > 100 | 96.7 | 55 | > 100 | > 100 |  | > 100 | 35.7 | > 100 | 45.9 | 80.5 | 50 | > 100 |  | > 100 | 
CC(=O)OCC1OC(n2c(N)c(C#N)c(-c3ccc(C)cc3)c(C#N)c2=S)C(OC(C)=O)C(OC(C)=O)C1OC(C)=O (centres undefined) | 47.2 | 19.2 | 20.1 | > 100 | 39.7 | 37.9 | > 100 | > 100 | 32.7 | 41 | 29.4 | 29.5 | > 100 | > 100 | > 100 | 33 |  |  | 
N#CC(c1cc2c(cc1Br)OCO2)N1CCOCC1 (centres undefined) | > 100 | 92.1 | > 100 | > 100 | > 100 | > 100 | > 100 |  | 51.6 | > 100 | > 100 | > 100 | > 100 |  | > 100 | > 100 | > 100 | 60.3 | 
N#CCCN(CCC#N)c1ccc(/C=C2\N=C(c3ccccc3)N(c3ccccn3)C2=O)cc1 | > 100 | > 100 | > 100 | > 100 | > 100 | > 100 | > 100 | > 100 | > 100 | > 100 | > 100 | > 100 | > 100 | > 100 | > 100 | > 100 |  |  | 
O=C(c1cccnc1)N1N=C(c2ccc(Cl)cc2)CC1(O)c1cc(F)c(Cl)cc1Cl (centres undefined) | 91.3 | 28.1 | 43.3 | > 100 | 63.7 | > 100 | > 100 | > 100 | 26.7 | 37.5 | 28.7 | > 100 | 26.9 |  | > 100 | > 100 | 92.1 | > 100 | 
CCCCCCCCCCCCCCCCOCC(COP(=O)([O-])OCC[N+](C)(C)C)OCCCCCCCCCCCCCCCC (centres undefined) | > 100 | > 100 | > 100 | > 100 | > 100 |  | > 100 | > 100 | > 100 | > 100 | > 100 |  | > 100 | > 100 | > 100 | > 100 | > 100 |  | 
NS(=O)(=O)c1ccc(CNc2nc(-c3cccs3)nc3ccc(I)cc23)cc1 | 49.9 | 30.8 | 40.1 | 60.5 | 27.5 | 28.1 | 44.4 | 28.9 | 43.5 | 57.7 | 29.9 | 28.5 | 30.1 |  | 29.6 | 27.9 | 28.2 | 42.8 | 14
CN(C)c1ccc(/C=C(\NC(=O)c2ccccc2)C(=O)NC(CCC(=O)O)C(=O)O)cc1 (centres undefined) | > 100 | > 100 | > 100 | > 100 | > 100 | > 100 | > 100 | > 100 | > 100 | > 100 | > 100 | > 100 | > 100 | > 100 | > 100 | > 100 | > 100 |  | 
N/N=C1/CCCc2nonc21 | > 100 | > 100 |  | > 100 | > 100 | > 100 | > 100 | > 100 | > 100 | > 100 | > 100 | > 100 | > 100 |  | > 100 | > 100 |  | > 100 | 
O=C(OCC1OC(c2nn[nH]n2)C(OC(=O)c2ccccc2)C1OC(=O)c1ccccc1)c1ccccc1 (centres undefined) | > 100 | > 100 | > 100 | > 100 | > 100 | > 100 | > 100 | > 100 | > 100 | > 100 | > 100 | > 100 | > 100 | > 100 | > 100 | > 100 |  |  | 
COc1cccc(N2C(=O)CSC2c2cc(OC)c(OC)c(OC)c2)c1 (centres undefined) |  | > 100 | 87.2 | > 100 | > 100 | > 100 | > 100 | > 100 |  | > 100 | 76.8 | > 100 | 66.2 | > 100 | > 100 |  | 90.4 | > 100 | 
S=C(S)N1CCN(c2ccc(Cl)c(Cl)c2)CC1 | > 100 | 59.4 |  |  |  | > 100 | > 100 | > 100 | > 100 | > 100 | 33.6 | > 100 | 50 | 44.2 |  | 44.2 | 50.1 |  | 
COc1ccc2c(c1)N=C1CSC(c3cc([N+](=O)[O-])ccc3Cl)N1C2 (centres undefined) | 97.2 | 71.2 | > 100 | > 100 | 37.9 | 55.4 | 68.2 | 96.4 | 82 | 89.6 | 79.6 | > 100 |  |  | 45.4 | 60.4 | 57 | 70.1 | 
Cn1c2ccccc2c(=NNc2ccccc2C(=O)O)c2ccccc21 | 75.4 | 36.1 | 45.8 | 44.9 | 51.5 | 75.2 | 85 | 27.5 | 33.3 | 83.1 | 34.1 | 77.2 | 28.5 |  | 39.7 | 43.7 | 33.3 | 44.6 | 
CCO[C@]12C[C@H](OC)[C@@]3(O)CC(C1[C@H]3O)C13C4C2[C@H](OC)C1[C@](COC)(CN4CC)[C@H](O)C[C@@H]3OC (some centres undefined) | > 100 | > 100 | > 100 | > 100 | > 100 | > 100 | > 100 | > 100 | > 100 | > 100 | > 100 | > 100 |  |  | > 100 |  |  | > 100 | 
CNC(=O)CCCN(C)C(=O)CCCCC(=O)N(C)C | > 100 | > 100 | > 100 | > 100 | > 100 | > 100 | > 100 | > 100 | > 100 | > 100 | > 100 | > 100 | > 100 | > 100 | > 100 | > 100 | > 100 |  | 
CN(CCCCN(C)CCc1ccc(Cl)c(Cl)c1)CCCCN1CCCC1 | 3.74 |  | 4.01 | 3.66 | 3.06 | 2.99 | 5.54 | 3.73 | 3.03 | 4.01 | 3.8 | 3.35 | 4.34 | 3.14 | 2.98 | 3.46 | 2.32 |  | 
ClC1=C(Cc2ccccc2)Cc2ccc3c(c21)CCC3 | > 100 | > 100 | 74.1 | > 100 | 53.8 | > 100 | > 100 | > 100 | 45 | > 100 | 26.2 | 98.2 | 87.2 |  |  | 59.7 | 39.5 | 36.9 | 
CN(/N=C/C=N/N(C)C1=NCCCCN1)C1=NCCCCN1 | > 100 | > 100 | > 100 | > 100 | > 100 | > 100 | > 100 | > 100 | > 100 | > 100 | > 100 | > 100 | > 100 |  | > 100 | > 100 | > 100 | > 100 | 
CC(C)NC(=O)OCCN=C1c2ccccc2CCc2ccccc21 | 70.1 | 41.5 | 60.5 | 43.1 | 46 | 92.7 | 82.9 | 77.8 | > 100 | 46.2 | 35.7 | > 100 | 58.5 |  | 76.9 | 36.3 |  | 53 | 
O=C(NCCO)Nc1c(C(F)(F)F)cc(-c2ccccc2)[nH]c1=O | > 100 |  | > 100 | > 100 | > 100 | > 100 | > 100 | > 100 | > 100 | > 100 | > 100 | > 100 | > 100 | > 100 | > 100 |  |  |  | 
O=c1[nH]nc(Cc2ccc(Cl)cc2)n1/N=C\c1ccc(/C=N/n2c(Cc3ccc(Cl)cc3)n[nH]c2=O)cc1 | 57.5 |  | > 100 | > 100 | > 100 | > 100 | > 100 | > 100 | > 100 | > 100 | > 100 | > 100 | > 100 | > 100 | > 100 | > 100 | > 100 |  | 

Source: PubChem BioAssay (NCI)
